Assay results: US20080271210A1, “Oryza Sativa Lectin-Like Receptor Kinase 1 (Oslrk1), a Gene Involved in Plant Development” (Temasek Life Sciences Laboratory National University of …, priority 2004, published 2008)

Legend:
Type in all cases: in vivo, Oryza sativa
Oslrk1 gene [1] = test: Northern-blot of Oslrk1 transcript in WT seedlings treated with hormones and SA; settings: 100 uM, 24 hours, WT seedlings
Excerpt: Differential Regulation of Oslrk1 Gene Expression by Hormones. Receptor-like kinases were postulated to be involved in signal transduction events as they perceive a signal via a ligand-binding extracellular domain and transmit it through the serine/threonine kinase domain into the cytosol (Shiu and Bleecker, 2001). In order to know possible factors influencing the Oslrk1 gene regulation, we analyzed promoter of the Oslrk1 (1.5 kb) for the presence of cis-acting elements using the program PlantCARE (Lescot et al., 2002). Three TGAGC motifs observed in MeJA inducible genes were found in promoter of the Oslrk1 at the positions −186, −657 and −1190. Apart from these, three GA3 inducible motifs (P-box-CCTTxt) −101, −206 and −740 bp upstream of the Oslrk1 ORF were located. In addition, five salicylic acid inducible motifs (TCA-elementcAGAAa/ga) at the positions of −321, −601, −604, −855 and −1135 were detected. The presence of MeJA, GA and SA responsive cis-elements in the Oslrk1 promoter indicated possible regulatory roles of these factors. The promoter analysis led us to study the effect of different hormones and compounds on the Oslrk1 transcription. The WT seeds were germinated for […] then seedlings were transferred to the medium containing one of the following chemicals: […], MeJA, GA3 or ABA at concentration 100 uM and SA (5 mM) for 24 hours (Materials and Methods). The total RNA isolated from the untreated and treated seedlings were used in Northern-blot hybridization using 3′ UTR of the Oslrk1 gene as a probe. The treatment with GA3 and SA repressed the Oslrk1 gene expression (FIG. 8A) by 2.5 and 3.3 times respectively. […] In order to confirm the level of induction of the Oslrk1 gene by MeJA over time, in another series of experiments, a time course was performed after hormone treatment. Seven day old seedlings were sprayed with 100 uM of MeJA solution and they were harvested in 1, 2, 4, 6, 8, and 12 hours.
RNA Isolation and Northern-blot Analysis. RNA was isolated from different organs of rice plant at different developmental stages (roots of 10-14 days old seedlings and 2 months old plants, 10-14 days old seedlings, young and mature leaves, panicles at the flowering stage and calli) using a RNeasy Plant mini kit (Qiagen,). The RNA (10 ug) was fractionated on a 1.2% denaturating formaldehyde agarose gel and transferred onto a Hybond-N^+ membrane (Amersham). The bolts were hybridized with dogoxigenin (DIG)-labeled probes in DIG Easy Hyb solution (Roche) at 50° C. After hybridization, membranes were washed twice with 2×SSC and 0.1% SDS for 15 min, then twice with 0.5×SSC and 0.1% SDS for 15 min at 68° C. Detection was carried out according to manufacturer using DIG Wash and Block Buffer set and chemiluminescent substrate CDP Star™ (Roche). DIG-labelled probe corresponded to 3′UTR and lectin domain of Oslrk1 was used. For the control of RNA quantity, DIG-probe corresponding to rice Actin1 gene was synthesized using the following primers: […]
(§1) The RT-PCRs and Northern blots were repeated at least thrice and similar results were obtained. The quantification of the intensity of the hybridization signals was performed using Quantity ONE 4.5.0 software in Gel doc XR documentation system (Bio-Rad Laboratories, Inc., USA). The level of actual expression was calculated as a ratio of intensity of specific signal (Oslrk1 3′UTR probe) to the intensity of signal of positive control (rice Act1).
Treatment of WT Seedlings with Hormones and Sugars. Two week old WT seedlings were transferred to MS medium containing 100 μM of different hormones, such as Indole 3-Acetic Acid (IAA), Abscisic acid (ABA), Methyl Jasmonate (MeJA), or Gibbrellic Acid (GA3) and 5 mM of Salicylic Acid (SA), and were grown for 24 hours under normal day/light conditions. Total RNA was extracted from root of the seedlings and whole seedlings. […]

Oslrk10 = test: RT-PCR of Oslrks in treated 2 week-old seedlings; settings: treated vs control
Experimental: (§2) RT-PCRs were carried out on RNA samples isolated from 2 week-old seedlings treated with various sugar (FIG. 13), hormone (FIG. 14), and abiotic stresses (FIG. 15) using primers designated to either 3′ or 5′ Untranslated Regions (UTRs) of the 15 Oslrks found in Table 2. For each Oslrk two lanes in the gel are found, the first lane is the control and the second one treatment samples.
(§3) Table 3 provides a summary of all the above referenced data on the Oslrks, showing the RT-PCR results of various treatments, including sugar, hormone and abiotic stress and northern blot results on various tissues of rice plant grown in normal conditions, and the ESTs, or cDNAs availability in the database. In the table, “I” represents induced expression and “R” represents repressed expression.

Oslrk11 = test: RT-PCR of Oslrks in treated 2 week-old seedlings; settings: treated vs control
Experimental: as §2, §3

Oslrk12 = test: RT-PCR of Oslrks in treated 2 week-old seedlings; settings: treated vs control
Experimental: as §2, §3

Oslrk14 = test: RT-PCR of Oslrks in treated 2 week-old seedlings; settings: treated vs control
Experimental: as §2, §3

Oslrk1 = test: RT-PCR of Oslrks in treated 2 week-old seedlings; settings: treated vs control
Experimental: as §2, §3

Oslrk2 = test: RT-PCR of Oslrks in treated 2 week-old seedlings; settings: treated vs control
Experimental: as §2, §3

Oslrk4 = test: RT-PCR of Oslrks in treated 2 week-old seedlings; settings: treated vs control
Experimental: as §2, §3

Oslrk5 = test: RT-PCR of Oslrks in treated 2 week-old seedlings; settings: treated vs control
Experimental: as §2, §3

Oslrk6 = test: RT-PCR of Oslrks in treated 2 week-old seedlings; settings: treated vs control
Experimental: as §2, §3

Oslrk8 = test: RT-PCR of Oslrks in treated 2 week-old seedlings; settings: treated vs control
Experimental: as §2, §3

Oslrk1 gene [2] = test: Northern-blot of Oslrk1 transcript in WT seedlings treated with sugars; settings: sugars 175 mM, 48 hours, Mannitol as osmotic control
Experimental: Lectins are known as carbohydrate-binding proteins that specifically recognize diverse sugar structures (Vijayan and Chandra, 1999). […] Five different sugars: glucose (Glu), sucrose (Suc), fructose (Fm), Gal and Man were used for this study along with Mannitol as an osmotic control (Methods). Northern-blot hybridizations were carried out on the total RNA isolated from treated seedlings.
RNA Isolation and Northern-blot Analysis. RNA was isolated from different organs of rice plant at different developmental stages (roots of 10-14 days old seedlings and 2 months old plants, 10-14 days old seedlings, young and mature leaves, panicles at the flowering stage and calli) using a RNeasy Plant mini kit (Qiagen,). […] For the control of RNA quantity, DIG-probe corresponding to rice Actin1 gene was synthesized using the following primers: […]
as §1, with “Act1). […]” for “Act1).”

WT seeds and seedlings = test: Germination and growth of WT seeds in galactose/mannose containing media
Excerpt: (§4) The altered expression of the Oslrk1 by different sugars described above led us to study the response of the mutant to these monosaccharides and sucrose. The WT and the mutant seeds were germinated and grown in Gal, Man, Glu, Fm along with Suc at different concentrations (ranging from 0.1% to 1%) and Suc alone containing medium as a control. The following parameters were taken into account during observation: the shoot length, the number and the length of adventitious roots and the germination rate. […] Out of these three sugars tested, Man was selected as an example as its inhibitory effect was similar in seeds and seedlings of WT and mutant as shown in FIGS. 10A and B. The seed germination was severely affected by Man.
(§5) At 1.0% of the Gal, the shoot length decreased by half in the mutant, whereas only by 15% in the WT seedlings. […] Apart from this, the germination rate of the WT seeds dropped to 85% whereas in the mutant it dropped to 30%.
(§6) Germination of WT and mutant seeds in galactose/mannose containing media. WT and mutant seeds were germinated separately on MS medium containing 0.8% agar and 1% sucrose. In addition, D(+)galactose/D(+/−)mannose was added in different concentrations (0.1, 0.2, 0.5, and 1.0%) along with a control (MS with 1% of sucrose). At 14 days after germination, the observations for adventitious root number and length (cm), shoot length (cm) and germination rate (%) were recorded.

[3] = test system: Oslrk1 mutant seeds and seedlings; test: Germination and growth of Oslrk1 mutant seeds in galactose/mannose containing media
Excerpt: as §4, §5, §6

Oslrk9 = test: RT-PCR of Oslrks in treated 2 week-old seedlings; settings: treated vs control
Experimental: as §2, §3

Oslrk15 = test: RT-PCR of Oslrks in treated 2 week-old seedlings; settings: treated vs control
Experimental: as §2, §3

Row | Structure (SMILES) | effect on Oslrk1 transcription (Oslrk1 gene [1]) | Oslrk10 expression by RT-PCR, Rt (Oslrk10) | Oslrk11 expression by RT-PCR, Sh (Oslrk11) | Oslrk14 expression by RT-PCR, Sh (Oslrk14) | Oslrk2 expression by RT-PCR, Rt (Oslrk2) | Oslrk2 expression by RT-PCR, Sh (Oslrk2) | Oslrk4 expression by RT-PCR, Rt (Oslrk4) | Oslrk4 expression by RT-PCR, Sh (Oslrk4) | Oslrk5 expression by RT-PCR, Rt (Oslrk5) | Oslrk5 expression by RT-PCR, Sh (Oslrk5) | Oslrk8 expression by RT-PCR, Sh (Oslrk8) | also measured
1 | CC1=CC(=O)CC(C)(C)[C@@]1(O)/C=C/C(C)=C\C(=O)O [ABA, Abscisic acid] | no significant effect | R | I | I | I | I | I | I | I | I | I | Oslrk12 expression by RT-PCR, Sh (Oslrk12): I; Oslrk1 expression by RT-PCR, Sh (Oslrk1): R; Oslrk6 expression by RT-PCR, Sh (Oslrk6): R
2 | O=C[C@H](O)[C@@H](O)[C@@H](O)[C@H](O)CO [Gal, galactose] | – | – | R | I | I | R | – | I | I | I | I | Oslrk1 expression in response to sugars (Oslrk1 gene [2]): Repression; length of adventitious roots (WT seeds and seedlings; 1.0% Gal): reduced; number of the adventitious roots (WT seeds and seedlings; 1.0% Gal): more or less same; shoot length decreased by (WT seeds and seedlings; 1.0% Gal): 15%; germination rate (WT seeds and seedlings; Gal (1.0%)): 85%; length of adventitious roots ([3]; Oslrk1 mutant, 1.0% Gal): severe reduction; number of the adventitious roots reduced by ([3]; Oslrk1 mutant, 1.0% Gal): 85%; shoot length decreased by ([3]; Oslrk1 mutant, 1.0% Gal): half; germination rate ([3]; Oslrk1 mutant, Gal (1.0%)): 30%; behavior of the mutant compared with the WT upon treatment ([3]; sugar 0.1% to 1% along with Suc): differential response; Oslrk10 expression by RT-PCR, Sh (Oslrk10; Sh): I; Oslrk11 expression by RT-PCR, Rt (Oslrk11; Rt): I; Oslrk9 expression by RT-PCR, Sh (Oslrk9): I
3 | O=C(O)Cc1c[nH]c2ccccc12 [IAA, Indole 3-Acetic Acid] | no significant effect | I | – | – | – | – | I | – | I | – | – | Oslrk15 expression by RT-PCR, Rt (Oslrk15): I; Oslrk8 expression by RT-PCR, Rt (Oslrk8; Rt): I
